Results: patent US8242118B2, “Arylsulfonamide derivatives for use as CCR3 antagonists in the treatment of inflammatory and immunological disorders” (Axikin Pharmaceuticals Inc., priority 2001, dated 2012)
Structures can show the parent of a compound that is named as a salt.

Biological target: T1, Human CCR3 (Homo sapiens, UniProt P51677)
T1 construct: The cloned CCR3 cDNA was constructed with pcDNA3 vector and transfected into a IC562 cell line; expressed in transfected cells
T1 sequence (P51677 1-355): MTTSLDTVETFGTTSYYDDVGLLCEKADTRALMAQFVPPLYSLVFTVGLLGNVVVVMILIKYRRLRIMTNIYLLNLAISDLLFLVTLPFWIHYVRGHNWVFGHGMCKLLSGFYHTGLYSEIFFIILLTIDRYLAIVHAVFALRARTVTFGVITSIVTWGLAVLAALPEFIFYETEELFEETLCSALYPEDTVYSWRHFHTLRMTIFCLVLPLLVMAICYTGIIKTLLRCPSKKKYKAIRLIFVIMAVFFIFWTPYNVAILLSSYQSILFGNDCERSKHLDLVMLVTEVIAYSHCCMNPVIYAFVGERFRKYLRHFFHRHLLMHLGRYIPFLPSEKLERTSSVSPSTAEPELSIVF
Assay: Calcium mobilization assay, eotaxin-stimulated
Type: cell-based
Conditions: human CCR3-transformed K562 cells, 10 nM eotaxin; compounds of about 40 to 90% purity; read-out: Activity grade Ca2+ (IC50 class)
Protocol: • Human CCR3-transformed K562 cells were used. The cloned CCR3 cDNA was constructed with pcDNA3 vector and transfected into a IC562 cell line. The human CCR3-transformed K562 cells were maintained in RPMI-1640 (Cat.#22400-089, Life Technologies) supplemented with 10% FCS (Cat.#A-1115-L, Hyclone), 55 μM 2-mercaptoethanol (Cat.#21985-023, Life Technologies), 1 mM sodium pyruvate (Cat.#11360-070, Life Technologies), 100 units/ml of penicillin G and 100 μg/ml of streptomycin (Cat.#15140-122, Life Technologies), and 0.4 mg/ml of Geneticin (Cat.#10131-035, Life Technologies)(hereinafter called “culture medium”). Before the receptor binding assay, cells were pretreated with 5 mM sodium butyrate (Cat.#193-01522, Wako)-containing the culture medium (2×10^5 cells/ml) for 20-24 hours to increase the expression of CCR3. (2) Receptor Binding Assay (RBA) • Butyrate-pretreated cells, suspended in binding buffer (25 mM HEPES pH 7.6, 1 mM CaCl2, 5 mM MgCl2, 0.5% BSA, 0.1% NaN3) at a cell density of 2×10^6 cells/ml, were added into 60 μl/well in the 96-well round bottom polypropylene plate (Cat.#3365, Costar). Compounds, diluted with the binding buffer (4-times higher concentration of the final concentration), were added into 30 μl/well in the polypropylene plate. [^125I]-labeled human eotaxin (Cat.#IM290, Amersham Pharmacia Biotech), diluted with the binding buffer at the concentration of 0.4 nM (final concentration; 0.1 nM), was added into 30 μl/well in the polypropylene plate. Total 120 μl/well of binding reaction mixture (60 μl/well of cell suspension, 30 μl/well of compound solution, and 30 μl/well of [^125I]-labeled eotaxin) were incubated in the polypropylene plate for 1 hour at room temperature after the incubation, 100 μl/well of the reaction mixture was transferred to a filtration plate (Cat.#MAFB-N0B, Millipore), and washed with the washing buffer (25 mM HEPES pH 7.6, 1 mM CaCl2, 5 mM MgCl2, 0.5% BSA, 0.1% NaN3, 0.5 M NaCl) twice. The 96-well filtration plate was pretreated with 100 μl/well of 0.5% polyethylenimine (Cat.#P-3143, Sigma) for 2-4 hours at room temperature and washed with the washing buffer twice before use. The non-specific binding was determined by parallel incubation in the presence of 500 nM of non-labeled eotaxin (Cat.#23209, Genzyme Techne). The radioactivities remained on the filter were measured by liquid scintillation counter (TopCount™, Packard) after an addition of 45 μl/well of scintillant (Microscint20, Cat.#6013621, Packard). The inhibition percent at each concentration of compound was calculated, and IC50 values were determined from the inhibition curve. [Determination of IC50 Values of Compounds in Calcium Mobilization Assay] (IC50 Ca2+) (1) Cell • Human CCR3-transformed K562 cells were used. The human CCR3-transformed K562 cells were maintained in RPMI-1640 supplemented with 10% FCS, 55 μM 2-mercaptoethanol (Cat.#21985-023, Life Technologies), 1 mM sodium pyruvate, 100 units/ml of penicillin G and 100 μg/ml of streptomycin and 0.4 mg/ml of Geneticin. Before the calcium mobilization assay, cells were pretreated with 5 mM sodium butyrate-containing the culture medium (2×10^5 cells/ml) for 20-24 hours to increase the expression of CCR3. (2) Calcium Mobilization Assay • Butyrate-pretreated cells were loaded with Fluo-3AM (Cat.#F-1242, Molecular Probes) in loading buffer (Hanks' solution Cat.#05906 Nissui, 20 mM HEPES pH 7.6, 0.1% BSA, 1 mM probenecid Cat.#P-8761 Sigma, 1 μM Fluo-3AM, 0.01% pluronic F-127 Cat.#P-6866 Molecular Probes) at a cell density of 1×10^7 cells/ml. Then, cells were washed with calcium assay buffer (Hanks' solution Cat.#05906 Nissui, 20 mM HEPES pH 7.6, 0.1% BSA, 1 mM Probenecid Cat.#P-8761 Sigma). The cell suspension (3.3×10^6 cells/ml) was added into 60 μl/well in the 96-well clear bottom black plate (Cat.#3904, Costar). Compounds, diluted (5-times concentration of the final concentration) with the calcium assay buffer, were added into 20 μl/well in the plate 10 minutes before assay. […]

Compound | IC50 [µM]
Cc1cccc(Oc2ccc([N+](=O)[O-])cc2S(=O)(=O)N2CCNCC2)c1 [Example 1-24] | < 1
COC(=O)c1cncc(Oc2ccc([N+](=O)[O-])cc2S(=O)(=O)N2CCNCC2)c1 [Example 1-53] | 1 to 10
O=[N+]([O-])c1ccc(Oc2cc(Cl)cc(Cl)c2)c(S(=O)(=O)NCC2CCNCC2)c1 [Example 1-96] | < 1
O=[N+]([O-])c1ccc(Sc2ccccc2)c(S(=O)(=O)N2CCNCC2)c1 [Example 2-14] | 1 to 10
O=[N+]([O-])c1ccc(Nc2cccc(Cl)c2)c(S(=O)(=O)N2CCNCC2)c1 [Example 3-7] | < 1
O=[N+]([O-])c1ccc(Nc2ccc(F)cc2)c(S(=O)(=O)N2CCNCC2)c1 [Example 3-11] | < 1
CC1CCCCN1CCCNS(=O)(=O)c1cc([N+](=O)[O-])ccc1Oc1cc(Cl)cc(Cl)c1 (stereo not shown) [Example 4-40] | < 1
N#Cc1cc(S(=O)(=O)N2CCNCC2)c(Oc2cc(Cl)cc(Cl)c2)cc1Cl [Example 12-3] | 1 to 10
N#Cc1ccc(Oc2cc(Cl)cc(Cl)c2)c(S(=O)(=O)N2CC[C@H](N)C2)c1 [Example 13-1, 1-{5-cyano-2-(3,5-dichlorophenoxy)phenylsulfonyl}-(3S)-aminopyrrolidine hydrochloride] | < 1
N#Cc1ccc(Oc2cc(Cl)cc(Cl)c2)c(S(=O)(=O)NCCN)c1 [Example 13-8] | < 1
COC(=O)c1ccc(Oc2cc(C)cc(C)c2)c(S(=O)(=O)N2CCNCC2)c1 [Example 15-2, methyl 4-(3,5-dimethylphenoxy)-3-(1-piperazinylsulfonyl)benzoate hydrochloride] | < 1
NC(=O)c1cc(F)c(Oc2cc(Cl)cc(Cl)c2)c(S(=O)(=O)N2CCNCC2)c1 [Example 15-4] | 1 to 10
Cc1cc(C)cc(Oc2ccc(CO)cc2S(=O)(=O)N2CCNCC2)c1 [Example 16-1, [4-(3,5-dimethylphenoxy)-3-(1-piperazinylsulfonyl)phenyl]methanol hydrochloride] | < 1
N#Cc1ccc([S+]([O-])c2cc(Cl)cc(Cl)c2)c(S(=O)(=O)N2CCNCC2)c1 (stereo not shown) [Example 19-1, 4-[(3,5-dichlorophenyl)sulfinyl]-3-(1-piperazinylsulfonyl)benzonitrile hydrochloride] | 1 to 10
Cc1cc(C)cc(N(C)c2ccc([N+](=O)[O-])cc2S(=O)(=O)N2CCNCC2)c1 [Example 21-2] | < 1
Cc1cc(C)cc(Oc2ccc(C(=O)NCCC#N)cc2S(=O)(=O)N2CCNCC2)c1 [Example 22-1, N-(2-cyanoethyl)-4-(3,5-dimethylphenoxy)-3-(1-piperazinylsulfonyl)benzamide hydrochloride] | < 1
Cc1cc(C)cc(Oc2ccc(-c3nnnn3CCC#N)cc2S(=O)(=O)N2CCNCC2)c1 [Example 22-3, 3-{5-[4-(3,5-dimethylphenoxy)-3-(1-piperazinylsulfonyl)phenyl]-1H-tetraazol-1-yl}propanenitrile hydrochloride] | < 1
Cc1cc(C)cc(Oc2ccc(-c3nnn[nH]3)cc2S(=O)(=O)N2CCNCC2)c1 [Example 22-4, 1-{[2-(3,5-dimethylphenoxy)-5-(1H-tetraazol-5-yl)phenyl]sulfonyl}piperazine hydrochloride] | < 1
Cc1cc(C)cc(Oc2cc([N+](=O)[O-])ccc2S(=O)(=O)N2CCNCC2)c1 [Example 23-1, 1-{2-(3,5-dimethylphenoxy)-4-nitrophenylsulfonyl}piperazine hydrochloride] | < 1

The next lines start with the values.

IC50 [µM] | Compound
< 1 | NCCNS(=O)(=O)c1cc([N+](=O)[O-])ccc1Oc1cc(Cl)cc(Cl)c1 [Example 1-95]
< 1 | CN(C)CC(C)(C)CNS(=O)(=O)c1cc([N+](=O)[O-])ccc1Sc1cc(Cl)cc(Cl)c1 [Example 2-4]
< 1 | O=[N+]([O-])c1ccc(Nc2ccc(Cl)cc2)c(S(=O)(=O)N2CCNCC2)c1 [Example 3-8]
< 1 | O=[N+]([O-])c1ccc(Nc2ccccc2F)c(S(=O)(=O)N2CCNCC2)c1 [Example 3-9]
< 1 | O=[N+]([O-])c1ccc(Nc2cccc(F)c2)c(S(=O)(=O)N2CCNCC2)c1 [Example 3-10]
< 1 | COc1ccccc1Nc1ccc([N+](=O)[O-])cc1S(=O)(=O)N1CCNCC1 [Example 3-12]
< 1 | CN(C)CCCCNS(=O)(=O)c1cc([N+](=O)[O-])ccc1Oc1cc(Cl)cc(Cl)c1 [Example 4-39]
< 1 | O=[N+]([O-])c1ccc(Oc2cc(Cl)cc(Cl)c2)c(S(=O)(=O)NCCN2CCCCC2)c1 [Example 4-41]
1 to 10 | Cc1cc(C)cc(Oc2cc(Cl)c(C#N)cc2S(=O)(=O)N2CCNCC2)c1 [Example 12-2]
< 1 | Cc1cc(C)cc(Oc2ccc(C(=O)O)cc2S(=O)(=O)N2CCNCC2)c1 [Example 14-1, 4-(3,5-dimethylphenoxy)-3-(1-piperazinylsulfonyl)benzoic acid hydrochloride]
< 1 | O=C(O)c1ccc(Oc2cc(Cl)cc(Cl)c2)c(S(=O)(=O)N2CCNCC2)c1 [Example 14-3]
1 to 10 | O=C(O)c1cc(S(=O)(=O)N2CCNCC2)c(Oc2cc(Cl)cc(Cl)c2)cc1Cl [Example 14-4]
< 1 | Cc1cc(C)cc(Oc2ccc(C(N)=O)cc2S(=O)(=O)N2CCNCC2)c1 [Example 15-1, 4-(3,5-dimethylphenoxy)-3-(1-piperazinylsulfonyl)benzamide hydrochloride]
1 to 10 | Cc1cc(C)cc(Oc2cc(Cl)c(C(N)=O)cc2S(=O)(=O)N2CCNCC2)c1 [Example 15-3]
1 to 10 | CN(c1cc(Cl)cc(Cl)c1)c1ccc(C#N)cc1S(=O)(=O)N1CCNCC1 [Example 21-1, 4-[(3,5-dichlorophenyl)(methyl)amino]-3-(1-piperazinylsulfonyl)benzonitrile hydrochloride]
< 1 | Cc1cc(C)cc(Oc2ccc(C(=O)NCCC(N)=O)cc2S(=O)(=O)N2CCNCC2)c1 [Example 22-2, N-[4-(3,5-dimethylphenoxy)-3-(1-piperazinylsulfonyl)benzoyl]-beta-alanineamide hydrochloride]
< 1 | Cc1cc(C)cc(Oc2cc(Br)cc(S(=O)(=O)N3CCNCC3)c2)c1 [Example 24-1, 1-{[3-bromo-5-(3,5-dimethylphenoxy)phenyl]sulfonyl}piperazine hydrochloride]

Test system: not given
Assay: not given
Conditions: not given

melting point [°C] | Compound
214 to 220 | Cc1cc(C)cc(Oc2ccc(S(=O)(=O)N3CCNCC3)cc2S(=O)(=O)N2CCNCC2)c1.Cl.Cl
